Experimental findings from patent US20260022142A1, “MACROCYCLIC IMMUNOMODULATORS” (Bristol-Myers Squibb Company, priority 2022, published 2026) are described below.

Molecules are shown by their SMILES. Bridge positions count the residues as written; N and C are the ends. Square brackets hold non-standard residues; d marks the D form. Peptide text beside a SMILES is read from it. * marks the point of attachment. ξ: configuration not given here. Phe(3-CF3) = N[C@@H](Cc1cccc(C(F)(F)F)c1)C(=O)O; Tyr(3,5-F2) = N[C@@H](Cc1cc(F)c(O)c(F)c1)C(=O)O; Phe(4-COOH) = N[C@@H](Cc1ccc(C(=O)O)cc1)C(=O)O; Bip = N[C@@H](Cc1ccc(-c2ccccc2)cc1)C(=O)O; Phe(3-Me) = Cc1cccc(C[C@H](N)C(=O)O)c1; NH(CH2)12COOH = O=C(O)CCCCCCCCCCCCN*; Val(3-OH) = CC(C)(O)[C@H](N)C(=O)O; 4Pal = N[C@@H](Cc1ccncc1)C(=O)O; Cha = N[C@@H](CC1CCCCC1)C(=O)O; Cit = NC(=O)NCCC[C@H](N)C(=O)O; Thr(3ξ) = CC(O)[C@H](N)C(=O)O; PEG4 = NCCOCCOCCOCCOCCC(=O)O; 12Ado = NCCCCCCCCCCCC(=O)O; Carboxymethyl = O=C(O)C*; Orn = NCCC[C@H](N)C(=O)O; Pra = C#CC[C@H](N)C(=O)O; Aun = NCCCCCCCCCCC(=O)O; Dab = NCC[C@H](N)C(=O)O; Nva = CCC[C@H](N)C(=O)O; Dap = NC[C@H](N)C(=O)O; AEEA = NCCOCCOCC(=O)O; ξDab = NCCC(N)C(=O)O

The target of this experiment is T1, PD-1/PD-L1 interaction (PE-labeled human PD-L1-Ig binding to Jurkat cell line over-expressing human PD-1) (Homo sapiens, UniProt Q15116).
T1 construct: expressed in transfected cells; host or cells: Jurkat
T1 sequence (Q15116 25-288): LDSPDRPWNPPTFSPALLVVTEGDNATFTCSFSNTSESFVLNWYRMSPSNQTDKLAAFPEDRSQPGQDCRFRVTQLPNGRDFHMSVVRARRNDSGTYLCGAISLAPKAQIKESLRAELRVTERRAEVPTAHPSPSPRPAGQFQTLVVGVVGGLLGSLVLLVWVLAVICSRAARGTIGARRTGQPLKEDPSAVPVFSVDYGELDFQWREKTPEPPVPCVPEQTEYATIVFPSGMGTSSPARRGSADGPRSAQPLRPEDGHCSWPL
In words: Jurkat-PD-1 Cell Binding High-Content Screening Assay (CBA). To be noted: Jurkat cell line over-expressing human PD-1; PE-labeled PD-L1-Ig 20 nM final; read-out: Jurkat hPD1-PDL1 IC50. Format: cell-based. The procedure, abridged: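 First, compound is added to PD-1-expressing Jurkat cells in serum-containing DMEM and left 2 h at 37° C. Next, PE-conjugated PD-L1-Ig is introduced at 20 nM final concentration for 1 hour. Finally, cells are fixed in 4% paraformaldehyde with Hoechst 33342, washed and imaged.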
The IC50 is the concentration at which inhibition is half-maximal. For `CCC[C@@H]1NC(=O)CSC[C@@H](C(=O)N[C@@H](CCN)C(=O)NCCOCCOCCOCCOCCC(=O)NCCCCCCCCCCCCC(=O)O)NC(=O)[C@H](CO)NC(=O)[C@H](C(C)(C)O)NC(=O)[C@H](CC2CCCCC2)NC(=O)[C@H](CCN)NC(=O)[C@@H](CC(C)C)NC(=O)[C@H](CCCN)NC(=O)[C@H](Cc2ccc(OCC(=O)O)cc2)NC(=O)[C@H](Cc2ccc(-c3ccccc3)cc2)NC(=O)[C@H](Cc2ccc(OCC(=O)O)cc2)NC(=O)[C@H](Cc2cccc(C(F)(F)F)c2)NC(=O)[C@H](CC(=O)O)NC(=O)[C@H](Cc2ccc(C(=O)O)cc2)NC1=O` [Compound 2901] ({CH2CO}-[Nva][Phe(4-COOH)]D[Phe(3-CF3)]Y(Carboxymethyl)[Bip]Y(Carboxymethyl)[Orn][dL][Dab][Cha][Val(3-OH)]SC[Dab][PEG4]-{NH(CH2)12COOH}; thioether N-14), the IC50 is 24.1 nM.

For `Cc1cccc(C[C@@H]2NC(=O)[C@H](CC(=O)O)NC(=O)[C@H](Cc3ccc(OCC(=O)O)cc3)NC(=O)[C@H](CN)NC(=O)CSC[C@@H](C(=O)NCCOCCOCC(=O)N[C@@H](CCN)C(=O)NCCCCCCCCCCC(=O)O)NC(=O)[C@H](CCCN)NC(=O)[C@H](C(C)C)NC(=O)[C@H](CC3CCCCC3)NC(=O)[C@H](CCN)NC(=O)[C@@H](CC(C)C)NC(=O)[C@H](CCCN)NC(=O)[C@H](CCCNC(N)=O)NC(=O)[C@H](Cc3ccc(-c4ccccc4)cc3)NC(=O)[C@H](C(C)C)NC2=O)c1` [Compound 2629] ({CH2CO}-[Dap]Y(Carboxymethyl)D[Phe(3-Me)]V[Bip][Cit][Orn][dL][Dab][Cha]V[Orn]C[AEEA][Dab][Aun]-OH; thioether N-14), the IC50 worked out at 8.6 nM.

For the compound `Cc1cccc(C[C@@H]2NC(=O)[C@H](CC(=O)O)NC(=O)[C@H](Cc3ccc(OCC(=O)O)cc3)NC(=O)[C@H](CN)NC(=O)CSC[C@@H](C(=O)N[C@@H](CCCN)C(=O)NCCCCCCCCCCCC(=O)O)NC(=O)[C@H](C(C)O)NC(=O)[C@H](C(C)C)NC(=O)[C@H](CC3CCCCC3)NC(=O)[C@H](CCN)NC(=O)[C@@H](CC(C)C)NC(=O)[C@H](CCCN)NC(=O)[C@H](CCCNC(N)=O)NC(=O)[C@H](Cc3ccc(-c4ccccc4)cc3)NC(=O)[C@H](C(C)C)NC2=O)c1` (stereo partly drawn) [Compound 3122] ({CH2CO}-[Dap]Y(Carboxymethyl)D[Phe(3-Me)]V[Bip][Cit][Orn][dL][Dab][Cha]V[Thr(3ξ)]C[Orn][12Ado]-OH; thioether N-14), the IC50 came to 19.3 nM.

Turning to `CC(=O)NCCCC[C@@H]1NC(=O)CSC[C@@H](C(=O)N[C@@H](CCCN)C(=O)N[C@@H](CO)C(=O)NCCCCCCCCCCCC(=O)O)NC(=O)[C@H](CO)NC(=O)[C@H](C(C)C)NC(=O)[C@H](CC2CCCCC2)NC(=O)[C@H](CCCNC(=N)N)NC(=O)[C@@H](CC(C)C)NC(=O)[C@H](CCCN)NC(=O)[C@H](CCCNC(=N)N)NC(=O)[C@H](Cc2ccc(-c3ccccc3)cc2)NC(=O)[C@H](C(C)C)NC(=O)[C@H](Cc2cccc(C)c2)NC(=O)[C@H](CC(=O)O)NC(=O)[C@H](Cc2ccc(OCC(=O)O)cc2)NC1=O` [Compound 3577] ({CH2CO}-K(Ac)Y(Carboxymethyl)D[Phe(3-Me)]V[Bip]R[Orn][dL]R[Cha]VSC[Orn]S[12Ado]-OH; thioether N-14), the concentration for half-maximal inhibition (IC50) came to 31.1 nM.

As to `CC(C)C[C@H]1NC(=O)[C@H](CCCN)NC(=O)[C@H](C(C)C)NC(=O)[C@H](Cc2ccc(-c3ccccc3)cc2)NC(=O)[C@H](C(C)C)NC(=O)[C@H](Cc2c[nH]c3ccccc23)NC(=O)[C@H](CC(=O)O)NC(=O)[C@H](Cc2ccc(C(=O)O)cc2)NC(=O)[C@H](C(C)O)NC(=O)CSC[C@@H](C(=O)N[C@@H](CC(N)=O)C(=O)NCCOCCOCC(=O)N[C@@H](CCCN)C(=O)NCCCCCCCCCCCC(=O)O)NC(=O)[C@H](CO)NC(=O)[C@H](C(C)C)NC(=O)[C@H](CC2CCCCC2)NC(=O)[C@H](CCN)NC1=O` (stereo partly drawn) [Compound 3038] ({CH2CO}-[Thr(3ξ)][Phe(4-COOH)]DWV[Bip]V[Orn][dL][Dab][Cha]VSCN[AEEA][Orn][12Ado]-OH; thioether N-14), the IC50 turned out to be 11.3 nM.

`CC(C)C[C@@H]1NC(=O)[C@H](Cc2c[nH]c3ccccc23)NC(=O)[C@H](CC(=O)O)NC(=O)[C@H](Cc2ccc(C(=O)O)cc2)NC(=O)[C@H](Cc2ccc(OCC(=O)O)cc2)NC(=O)CSC[C@@H](C(=O)NCCOCCOCC(=O)NCCCCCCCCCCC(=O)O)NC(=O)[C@H](CN)NC(=O)[C@H](C(C)C)NC(=O)[C@H](CC2CCCCC2)NC(=O)[C@H](CCN)NC(=O)[C@@H](CC(C)C)NC(=O)[C@H](CCCN)NC(=O)[C@H](Cc2ccc(O)cc2)NC(=O)[C@H](Cc2ccc(-c3ccccc3)cc2)NC1=O` [Compound 1238] ({CH2CO}-Y(Carboxymethyl)[Phe(4-COOH)]DWL[Bip]Y[Orn][dL][Dab][Cha]V[Dap]C[AEEA][Aun]-OH; thioether N-14): the IC50 worked out at 39.3 nM.

For `Cc1cccc(C[C@@H]2NC(=O)[C@H](CC(=O)O)NC(=O)[C@H](Cc3ccc(OCC(=O)O)cc3)NC(=O)[C@H](CN)NC(=O)CSC[C@@H](C(=O)N[C@@H](CCCN)C(=O)NCCCCCCCCCCC(=O)O)NC(=O)[C@H]([C@@H](C)O)NC(=O)[C@H](C(C)C)NC(=O)[C@H](CC3CCCCC3)NC(=O)[C@H](CCN)NC(=O)[C@@H](CC(C)C)NC(=O)[C@H](CCN)NC(=O)[C@H](Cc3ccc(OCC(=O)O)cc3)NC(=O)[C@H](Cc3ccc(-c4ccccc4)cc3)NC(=O)[C@H](Cc3ccc(O)cc3)NC2=O)c1` [Compound 2088] ({CH2CO}-[Dap]Y(Carboxymethyl)D[Phe(3-Me)]Y[Bip]Y(Carboxymethyl)[Dab][dL][Dab][Cha]VTC[Orn][Aun]-OH; thioether N-14), the IC50 was 14.8 nM.

For the compound `Cc1cccc(C[C@@H]2NC(=O)[C@H](CC(=O)O)NC(=O)[C@H](Cc3ccc(OCC(=O)O)cc3)NC(=O)[C@H](CCCNC(=N)N)NC(=O)CSC[C@@H](C(=O)N[C@@H](CCN)C(=O)NCCCCCCCCCCC(=O)O)NC(=O)[C@H](C(C)O)NC(=O)[C@H](C(C)C)NC(=O)[C@H](CC3CCCCC3)NC(=O)[C@H](CCN)NC(=O)[C@@H](CC(C)C)NC(=O)[C@H](CCCN)NC(=O)[C@H](Cc3ccc(O)cc3)NC(=O)[C@H](Cc3ccc(-c4ccccc4)cc3)NC(=O)[C@H](C(C)C)NC2=O)c1` (stereo partly drawn) [Compound 3457] ({CH2CO}-RY(Carboxymethyl)D[Phe(3-Me)]V[Bip]Y[Orn][dL][Dab][Cha]V[Thr(3ξ)]C[Dab][Aun]-OH; thioether N-14), the IC50 stood at 37.4 nM.

On to `Cc1cccc(C[C@@H]2NC(=O)[C@H](CC(=O)O)NC(=O)[C@H](Cc3ccc(OCC(=O)O)cc3)NC(=O)[C@H](CN)NC(=O)CSC[C@@H](C(=O)N[C@@H](CCN)C(=O)NCCCCCCCCCCC(=O)O)NC(=O)[C@@H](CCC(N)=O)NC(=O)[C@H](C(C)C)NC(=O)[C@H](CC3CCCCC3)NC(=O)[C@H](CCN)NC(=O)[C@@H](CC(C)C)NC(=O)[C@H](CCCN)NC(=O)[C@H](Cc3ccc(O)cc3)NC(=O)[C@H](Cc3ccc(-c4ccccc4)cc3)NC(=O)[C@H](CC(C)C)NC2=O)c1` [Compound 2769] ({CH2CO}-[Dap]Y(Carboxymethyl)D[Phe(3-Me)]L[Bip]Y[Orn][dL][Dab][Cha]V[dQ]C[Dab][Aun]-OH; thioether N-14), for which the IC50 is 60.7 nM.

In the case of `C#CC[C@H](NC(=O)COCCOCCNC(=O)[C@H](CN)NC(=O)[C@@H]1CSCC(=O)N[C@@H](Cc2ccncc2)C(=O)N[C@@H](Cc2ccc(OCC(=O)O)cc2)C(=O)N[C@@H](CC(=O)O)C(=O)N[C@@H](Cc2c[nH]c3ccccc23)C(=O)N[C@@H](C(C)C)C(=O)N[C@@H](Cc2ccc(-c3ccccc3)cc2)C(=O)N[C@@H]([C@@H](C)CC)C(=O)N[C@@H](CCCN)C(=O)N[C@H](CC(C)C)C(=O)N[C@@H](CCN)C(=O)N[C@@H](CC(C)C)C(=O)N[C@@H](C(C)C)C(=O)N[C@@H]([C@@H](C)O)C(=O)N1)C(=O)NCCCCCCCCCCC(=O)O` [Compound 1205] ({CH2CO}-[4Pal]Y(Carboxymethyl)DWV[Bip]I[Orn][dL][Dab]LVTC[Dap][AEEA][Pra][Aun]-OH; thioether N-14), the IC50 turned out to be 20 nM.

With `Cc1cccc(C[C@@H]2NC(=O)[C@H](CC(=O)O)NC(=O)[C@H](Cc3ccc(OCC(=O)O)cc3)NC(=O)[C@H](CN)NC(=O)CSC[C@@H](C(=O)N[C@@H](C)C(=O)N[C@@H](CCCCN)C(=O)NCCCCCCCCCCC(=O)O)NC(=O)[C@H]([C@@H](C)O)NC(=O)[C@H](C(C)C)NC(=O)[C@H](CC3CCCCC3)NC(=O)[C@H](CCN)NC(=O)[C@@H](CC(C)C)NC(=O)[C@H](CCCN)NC(=O)[C@H](CCCNC(N)=O)NC(=O)[C@H](Cc3ccc(-c4ccccc4)cc3)NC(=O)[C@H](C(C)C)NC2=O)c1` [Compound 1070] ({CH2CO}-[Dap]Y(Carboxymethyl)D[Phe(3-Me)]V[Bip][Cit][Orn][dL][Dab][Cha]VTCAK[Aun]-OH; thioether N-14), the IC50 was found to be 10.4 nM.

As to `Cc1cccc(C[C@@H]2NC(=O)[C@H](CC(=O)O)NC(=O)[C@H](Cc3ccc(OCC(=O)O)cc3)NC(=O)[C@H](CCCNC(=N)N)NC(=O)CSC[C@@H](C(=O)NC(CCN)C(=O)NCCCCCCCCCCCC(=O)O)NC(=O)[C@H](C(C)O)NC(=O)[C@H](C(C)C)NC(=O)[C@H](CC3CCCCC3)NC(=O)[C@H](Cc3c[nH]cn3)NC(=O)[C@@H](CC(C)C)NC(=O)[C@H](CCCN)NC(=O)[C@H](CCCNC(N)=O)NC(=O)[C@H](Cc3ccc(-c4ccccc4)cc3)NC(=O)[C@H](C(C)C)NC2=O)c1` (stereo partly drawn) [Compound 3501] ({CH2CO}-RY(Carboxymethyl)D[Phe(3-Me)]V[Bip][Cit][Orn][dL]H[Cha]V[Thr(3ξ)]C[ξDab][12Ado]-OH; thioether N-14), the IC50 was determined as 103 nM.

Turning to `CC(C)C[C@H]1NC(=O)[C@H](CCCN)NC(=O)[C@H](C(C)C)NC(=O)[C@H](Cc2ccc(-c3ccccc3)cc2)NC(=O)[C@H](C(C)C)NC(=O)[C@H](Cc2cc(F)c(O)c(F)c2)NC(=O)[C@H](CC(=O)O)NC(=O)[C@H](Cc2ccc(OCC(=O)O)cc2)NC(=O)[C@H](CN)NC(=O)CSC[C@@H](C(=O)N[C@@H](CCN)C(=O)NCCCCCCCCCCC(=O)O)NC(=O)[C@H](CCCCN)NC(=O)[C@H](C(C)C)NC(=O)[C@H](CC2CCCCC2)NC(=O)[C@H](CCN)NC1=O` [Compound 2032] ({CH2CO}-[Dap]Y(Carboxymethyl)D[Tyr(3,5-F2)]V[Bip]V[Orn][dL][Dab][Cha]VKC[Dab][Aun]-OH; thioether N-14), the half-maximal inhibitory concentration (IC50) was found to be 147 nM.
